{"source": "patent US12496315B2", "about": "“Compositions for drug delivery and methods of use thereof” (Stellular Bio, Inc., priority 2018, dated 2025)", "key": {"[1]": {"test_system": "iPSC differentiation cultures on Laminin 521", "experiment": "WNT agonist addition during iPSC directed differentiation", "assay_type": "cell-based, human", "conditions": "for Stage 1 differentiation efficiency at day 6, CD31 and CD34 immunofluorescence: first 48 hours", "source_text": "WNT signaling is important during development. The GSK3 kinase inhibitors CHIR98014 and CHIR99021 act as WNT agonists. […] The control and CHIR98014 cultures were then transitioned to Stage 2, where the production and release of preMKs were tracked by immunofluorescence staining of CD41 and CD43."}, "iPSCs": {"test_system": "iPSCs", "experiment": "Soluble Laminin 521 addition in 3D iPSC differentiation, preMK yield", "assay_type": "cell-based, human", "conditions": "for Stage 2 preMK yields vs control: addition at Day −1 or Day 6", "experimental": "[…] 24 hours later, the media was replaced with Stage 1 media and media exchanges were performed for 6 days. Media was then exchanged with Stage 2 media, with or without soluble Laminin 521. 24 hours later, daily half media exchanges were performed for up to 6 additional days. […] To determine if the effect of Laminin 521 could also be observed in agitated 3D cultures, iPSCs were dissociated as single cells and 1.5 million cells were seeded into each well of a 6-well ultra-low adherent plate containing StemFlex and the Rock inhibitor H1152 (control media), with or without soluble recombinant Laminin 521, and placed on an orbital shaker. 24 hours later, the media was replaced with Stage 1 media and media exchanges were performed for 6 days. Media was then exchanged with Stage 2 media, with or without soluble Laminin 521. 24 hours later, daily half media exchanges were performed for up to 6 additional days."}}}
{"compound": "Cc1c[nH]c(-c2cnc(NCCNc3ccc(C#N)cn3)nc2-c2ccc(Cl)cc2Cl)n1", "note": "[CHIR99021]", "values": [{"measurement": "Stage 1 differentiation efficiency at day 6, CD31 and CD34 immunofluorescence", "setting": "[1]; 6 μM", "result": "dramatic increase"}]}
{"compound": "Laminin 521: soluble recombinant Laminin 521", "values": [{"measurement": "Stage 2 preMK yields vs control", "setting": "iPSCs; 6-well ultra-low adherent plate on orbital shaker", "result": "increased the preMK yields"}, {"measurement": "Stage 2 preMK yields vs control", "setting": "iPSCs; 96-well U-bottom ultra-low adherent plate", "result": "increased the preMK yields"}, {"measurement": "Laminin 521 effect on preMK yields", "setting": "iPSCs; single cell passaged iPSCs aggregated in NutriStem", "result": "amplified"}]}
{"compound": "CHIR98014", "values": [{"measurement": "Stage 1 differentiation efficiency at day 6, CD31 and CD34 immunofluorescence", "setting": "[1]; 0.6 μM", "result": "dramatic increase"}, {"measurement": "Stage 2 output, visual estimation of CD41+ cells", "setting": "[1]; 0.6 μM, first 48 hours of Stage 1", "result": "higher output during Stage 2"}]}
